In patent publication US12421212B2, “Substituted benzenecarboxamides as IL-17A modulators” (DiCE Alpha, Inc., priority 2019, dated 2025):

biological target: T1, IL-17A/A (Homo sapiens, UniProt Q16552); assay: IL-17A/A HEK-Blue Cell Assay; type: cell-based; settings: HEK-Blue IL-17A reporter cell line, SEAP readout at A630, 20 hours incubation with IL-17A/A; top concentration 10 uM, 1 uM or 0.3 uM; read-out: IL-17A/A inhibition (pIC50) (converted)
T1 construct: purchased Genscript Z03228
T1 sequence (Q16552 24-155): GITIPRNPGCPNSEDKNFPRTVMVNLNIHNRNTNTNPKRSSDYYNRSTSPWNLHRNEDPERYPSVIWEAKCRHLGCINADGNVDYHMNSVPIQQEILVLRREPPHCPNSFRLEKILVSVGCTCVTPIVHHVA

| SMILES | IC50 |
| --- | --- |
| CCn1nccc1C(=O)N[C@H](C(=O)Nc1ccc([C@H](C)[C@@H](NC(=O)NC2CC2)C(=O)N2CCN(C)CC2)cc1F)C1CCCCCC1 [Compound 338] | < 10 nM |
| CC(C)n1nccc1C(=O)N[C@H](C(=O)Nc1ccc([C@H](C)[C@@H](NC(=O)NC2CC2)C(=O)N2CCN(C)CC2)cc1F)C1CCCCCC1 [Compound 339] | < 10 nM |
| CCn1nccc1C(=O)N[C@H](C(=O)Nc1ccc([C@H](C)[C@@H](NC(=O)CC2CC2)C(=O)N2CCN(C)CC2)cc1F)C1CCCCCC1 [Compound 340] | < 10 nM |
| CCC(=O)N[C@@H](C(=O)N1CCN(Cc2ccccn2)CC1)[C@@H](C)c1ccc(NC(=O)[C@@H](NC(=O)c2ccnn2CC)[C@H]2CC[C@H](C)CC2)c(F)c1 [Compound 341] | 10 to 100 nM |
| CCC(=O)N[C@@H](C(=O)N1CCOCC1)[C@@H](C)c1ccc(NC(=O)[C@@H](NC(=O)c2ccnn2CC)[C@H]2CC[C@H](C)CC2)c(F)c1 [Compound 342] | 10 to 100 nM |
| CCC(=O)N[C@@H](C(=O)N1CCC(C)(O)CC1)[C@@H](C)c1ccc(NC(=O)[C@@H](NC(=O)c2ccnn2CC)[C@H]2CC[C@H](C)CC2)c(F)c1 [Compound 343] | 10 to 100 nM |
| CCC(=O)N[C@@H](C(=O)N[C@@H](C)C1CC1)[C@@H](C)c1ccc(NC(=O)[C@@H](NC(=O)c2ccnn2CC)[C@H]2CC[C@H](C)CC2)c(F)c1 [Compound 344] | 10 to 100 nM |
| CCC(=O)N[C@@H](C(=O)NCC1CCC1)[C@@H](C)c1ccc(NC(=O)[C@@H](NC(=O)c2ccnn2CC)[C@H]2CC[C@H](C)CC2)c(F)c1 [Compound 345] | 10 to 100 nM |
| CCC(=O)N[C@@H](C(=O)NCC1(C)CC1)[C@@H](C)c1ccc(NC(=O)[C@@H](NC(=O)c2ccnn2CC)[C@H]2CC[C@H](C)CC2)c(F)c1 [Compound 346] | 10 to 100 nM |
| CCC(=O)N[C@@H](C(=O)N1CCN(Cc2ccccn2)CC1)[C@@H](C)c1ccc(NC(=O)[C@@H](NC(=O)c2ccnn2CC)C2CCCCCC2)c(F)c1 [Compound 348] | < 10 nM |
| CCC(=O)N[C@@H](C(=O)N1CCOCC1)[C@@H](C)c1ccc(NC(=O)[C@@H](NC(=O)C(F)(F)c2cccc(C#N)c2)C2CCCCCC2)c(F)c1 [Compound 349] | < 10 nM |
| CCC(=O)N[C@@H](C(=O)N1CCC(C)(O)CC1)[C@@H](C)c1ccc(NC(=O)[C@@H](NC(=O)c2ccnn2CC)C2CCCCCC2)c(F)c1 [Compound 350] | < 10 nM |
| CCC(=O)N[C@@H](C(=O)N1CCOCC1)[C@@H](C)c1ccc(NC(=O)[C@@H](NC(=O)c2ccnn2CC)C2CCCCCC2)c(F)c1 [Compound 351] | 10 to 100 nM |
| CCC(=O)N[C@@H](C(=O)N1CCOCC1)[C@@H](C)c1ccc(NC(=O)[C@@H](NC(=O)C(F)(F)c2cccc(C#N)c2)C2CCCCC2)c(F)c1 [Compound 352] | 10 to 100 nM |
| CCC(=O)N[C@@H](C(=O)N1CCS(=O)(=O)CC1)[C@@H](C)c1ccc(NC(=O)[C@@H](NC(=O)c2ccnn2CC)C2CCCCCC2)c(F)c1 [Compound 353] | 10 to 100 nM |
| CCC(=O)N[C@@H](C(=O)N1CCS(=O)(=O)CC1)[C@@H](C)c1ccc(NC(=O)[C@@H](NC(=O)C(F)(F)c2cccc(C#N)c2)C2CCCCCC2)c(F)c1 [Compound 354] | < 10 nM |
| CCC(=O)N[C@@H](C(=O)N1CCC(C)(O)CC1)[C@@H](C)c1ccc(NC(=O)[C@@H](NC(=O)C(F)(F)c2cccc(C#N)c2)C2CCCCCC2)c(F)c1 [Compound 355] | < 10 nM |
| CCC(=O)N[C@@H](C(=O)N1CC(N(C)C)C1)[C@@H](C)c1ccc(NC(=O)[C@@H](NC(=O)c2ccnn2CC)C2CCCCCC2)c(F)c1 [Compound 356] | 10 to 100 nM |
| CCC(=O)N[C@@H](C(=O)N1CCC(C)(O)CC1)[C@@H](C)c1ccc(NC(=O)[C@@H](NC(=O)c2conc2CC)C2CCCCCC2)c(F)c1 [Compound 357] | < 10 nM |
| CCC(=O)N[C@@H](C(=O)N1CCN(CCOC)CC1)[C@@H](C)c1ccc(NC(=O)[C@@H](NC(=O)c2ccnn2CC)C2CCCCC2)c(F)c1 [Compound 358] | 10 to 100 nM |
| CCC(=O)N[C@@H](C(=O)N1CCOCC1)[C@@H](C)c1ccc(NC(=O)[C@@H](NC(=O)c2ccnn2CC)C2CCCCC2)c(F)c1 [Compound 359] | 10 to 100 nM |
| CCC(=O)N[C@@H](C(=O)NC1CCOCC1)[C@@H](C)c1ccc(NC(=O)[C@@H](NC(=O)c2ccnn2CC)C2CCCCC2)c(F)c1 [Compound 360] | 10 to 100 nM |
| CCC(=O)N[C@@H](C(=O)N1CCS(=O)(=O)CC1)[C@@H](C)c1ccc(NC(=O)[C@@H](NC(=O)c2ccnn2CC)C2CCCCC2)c(F)c1 [Compound 361] | 10 to 100 nM |
| CCC(=O)N[C@@H](C(=O)N1CCN(C(C)C)CC1)[C@@H](C)c1ccc(NC(=O)[C@@H](NC(=O)c2ccnn2CC)C2CCCCC2)c(F)c1 [Compound 362] | 10 to 100 nM |
| CCC(=O)N[C@@H](C(=O)N1CCN(Cc2ccccn2)CC1)[C@@H](C)c1ccc(NC(=O)[C@@H](NC(=O)C(F)(F)c2cccc(C#N)c2)C2CCCCC2)c(F)c1 [Compound 363] | < 10 nM |

| SMILES | IC50 |
| --- | --- |
| CCC(=O)N[C@@H](C(=O)N1CCC(C)(O)CC1)[C@@H](C)c1ccc(NC(=O)[C@@H](NC(=O)C(F)(F)c2cccc(C#N)c2)C2CCCCC2)c(F)c1 [Compound 364] | < 10 nM |
| CCC(=O)N[C@@H](C(=O)N1CCS(=O)(=O)CC1)[C@@H](C)c1ccc(NC(=O)[C@@H](NC(=O)C(F)(F)c2cccc(C#N)c2)C2CCCCC2)c(F)c1 [Compound 365] | 10 to 100 nM |
| CCC(=O)N[C@@H](C(=O)N1CCN(Cc2ccccc2)CC1)[C@@H](C)c1ccc(NC(=O)[C@@H](NC(=O)c2ccnn2CC)C2CCCCC2)c(F)c1 [Compound 366] | < 10 nM |
| CCC(=O)NC(C(=O)N1CCN(Cc2ccccc2)CC1)[C@@H](C)c1ccc(NC(=O)[C@@H](NC(=O)c2ccnn2CC)[C@H]2CC[C@H](C)CC2)c(F)c1 (stereo partly shown) [Compound 367] | 10 to 100 nM |
| CCC(=O)N[C@@H](C(=O)N1CCC(F)(F)CC1)[C@@H](C)c1ccc(NC(=O)[C@@H](NC(=O)c2ccnn2CC)[C@H]2CC[C@H](C)CC2)c(F)c1 [Compound 369] | 10 to 100 nM |
| CCC(=O)N[C@@H](C(=O)N1CCC(C)CC1)[C@@H](C)c1ccc(NC(=O)[C@@H](NC(=O)c2ccnn2CC)[C@H]2CC[C@H](C)CC2)c(F)c1 [Compound 370] | 10 to 100 nM |
| CCC(=O)N[C@@H](C(=O)N1CCSCC1)[C@@H](C)c1ccc(NC(=O)[C@@H](NC(=O)c2ccnn2CC)[C@H]2CC[C@H](C)CC2)c(F)c1 [Compound 371] | 10 to 100 nM |
| CCC(=O)N[C@@H](C(=O)N1CCC(Oc2ccccc2)CC1)[C@@H](C)c1ccc(NC(=O)[C@@H](NC(=O)c2ccnn2CC)[C@H]2CC[C@H](C)CC2)c(F)c1 [Compound 372] | 10 to 100 nM |
| CCC(=O)N[C@@H](C(=O)N1CC2(C1)CC(F)(F)C2)[C@@H](C)c1ccc(NC(=O)[C@@H](NC(=O)c2ccnn2CC)[C@H]2CC[C@H](C)CC2)c(F)c1 [Compound 373] | 10 to 100 nM |
| CCC(=O)N[C@@H](C(=O)N1CCC(O)CC1)[C@@H](C)c1ccc(NC(=O)[C@@H](NC(=O)c2ccnn2CC)[C@H]2CC[C@H](C)CC2)c(F)c1 [Compound 374] | 10 to 100 nM |
| CCC(=O)N[C@@H](C(=O)N1CCC(C)CC1)[C@@H](C)c1ccc(NC(=O)[C@@H](NC(=O)c2ccnn2C2CCCC2)[C@H]2CC[C@H](C)CC2)c(F)c1 [Compound 375] | 10 to 100 nM |
| CCC(=O)N[C@@H](C(=O)N1CCC(C)(O)CC1)[C@@H](C)c1ccc(NC(=O)[C@@H](NC(=O)C(F)(F)c2nc(C)cs2)[C@H]2CC[C@H](C)CC2)c(F)c1 [Compound 376] | 10 to 100 nM |
| CCC(=O)N[C@@H](C(=O)N1CCC(C)(O)CC1)[C@@H](C)c1ccc(NC(=O)[C@@H](NC(=O)c2ccnn2C(C)C)[C@H]2CC[C@H](C)CC2)c(F)c1 [Compound 377] | 10 to 100 nM |
| CCC(=O)N[C@@H](C(=O)N1CCC(C)(O)CC1)[C@@H](C)c1ccc(NC(=O)[C@@H](NC(=O)C(F)(F)c2cncs2)[C@H]2CC[C@H](C)CC2)c(F)c1 [Compound 378] | 10 to 100 nM |
| C[C@@H](c1ccc(NC(=O)[C@@H](NC(=O)c2ccnn2C2CCCC2)[C@H]2CC[C@H](C)CC2)c(F)c1)[C@@H](NC(=O)C1(F)CC1)C(=O)N1CCOCC1 [Compound 380] | 10 to 100 nM |
| CCn1nccc1C(=O)N[C@H](C(=O)Nc1ccc([C@H](C)[C@@H](NC(=O)c2cnns2)C(=O)N2CCOCC2)cc1F)[C@H]1CC[C@H](C)CC1 [Compound 381] | 10 to 100 nM |
| CCC(=O)N[C@H](Cc1ccc(NC(=O)[C@@H](NC(=O)c2ccnn2CC)C2CCCCC2)c(F)c1)C(=O)N1CCC(C)(O)CC1 [Compound 382] | 10 to 100 nM |
| C[C@@H](c1ccc(NC(=O)[C@@H](NC(=O)C(F)(F)c2cccc(C#N)c2)C2CCCCCC2)c(F)c1)[C@@H](O)C(=O)N1CCN(C)CC1 [Compound 383] | 10 to 100 nM |
| CCn1nccc1C(=O)N[C@H](C(=O)Nc1ccc([C@H](C)[C@@H](NC(=O)c2cnns2)C(=O)N2CCN(C)CC2)cc1F)[C@H]1CC[C@H](C)CC1 [Compound 388] | 10 to 100 nM |
| CCC(=O)N[C@H](C(=O)N1CCN(C)CC1)[C@H](C)c1ccc(NC(=O)[C@@H](NC(=O)c2ccnn2CC)[C@@H](C)OC2CCCCC2)c(F)c1 [Compound 389] | 10 to 100 nM |
| CCC(=O)N[C@@H](C(=O)N1CCN(C)CC1)[C@@H](C)c1ccc(NC(=O)C(NC(=O)c2ccnn2CC)[C@@H](C)C2CCCCC2)c(F)c1 (stereo partly shown) [Compound 390] | < 10 nM |
| C[C@@H](c1ccc(NC(=O)[C@@H](NC(=O)C(F)(F)c2cccc(C#N)c2)C2CCCCCC2)c(F)c1)[C@@H](NC(=O)c1cnns1)C(=O)N1CCN(C)CC1 [Compound 391] | < 10 nM |
| CCC(=O)N[C@@H](C(=O)N1CCS(=O)(=O)CC1)[C@@H](C)c1ccc(NC(=O)[C@@H](NC(=O)c2ccnn2CC)[C@H]2CC[C@H](C)CC2)c(F)c1 [Compound 392] | 10 to 100 nM |
| CCC(=O)N[C@@H](C(=O)N1CCN(C)CC1)[C@@H](C)c1ccc(NC(=O)C(NC(=O)c2ccnn2C(C)C)C(C)c2ccc(F)cc2)c(F)c1 (stereo partly shown) [Compound 393] | 10 to 100 nM |
